The record followed here is US8586611B2 (priority 2005, dated 2013).

Like-named read-outs stand apart in the source and are kept apart here.

Holding throughout (format): in vivo
The test system of experiment [1] is Erysiphe graminis f. sp. tritici. Put plainly: Test E: wheat powdery mildew, spray the day before inoculation (disease rating, 100 = 100% disease control). The method, boiled down:
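Wheat seedlings sprayed to run-off with compound suspended in acetone/water 50/50 with 250 ppm Trem 014 (200 ppm equivalent to 500 g/ha); inoculated next day with Erysiphe graminis f. sp. tritici spore dust. Kept 7 days at 20° C, then rated 0–100% disease control versus controls.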

Experiment [2] concerns Phytophthora infestans. The experiment in a line: whole plant or invertebrate. Particulars: for Test D disease rating (100 = 100% disease control, 0 = no disease control): tomato late blight.
The test system of experiment [3] is Pseudoperonospora cubensis. The experiment in a line: Test F: cucumber downy mildew, DMSO/acetone/water test suspension, spray the day before inoculation (disease rating, 100 = 100% disease control). The source says:
The test compounds were first dissolved in dimethyl sulfoxide (DMSO) in an amount equal to 4% of the final volume and then suspended at the desired concentration (in ppm) in acetone and purified water (30/70 mix by volume). The resulting test suspensions were then used in test F. Spraying a 250 ppm test suspension on the test plants was the equivalent of a rate of 250 g/ha.
The test suspension was sprayed on cucumber seedlings. The following day the seedlings were inoculated with a spore suspension of Pseudoperonospora cubensis (the causal agent of cucumber downy mildew) and incubated in a saturated atmosphere at 20° C. for 24 h, and then moved to a growth chamber at 20° C. for 6 days, after which disease ratings were made.
Results for Tests A-F are given in Table A. In the table, a rating of 100 indicates 100% disease control and a rating of 0 indicates no disease control (relative to the controls). A dash (-) indicates no test results.

For experiment [4], the system named is Phytophthora infestans. Put plainly: whole plant or invertebrate. Particulars: for Test C disease rating (100 = 100% disease control, 0 = no disease control): tomato late blight.
In a further experiment the test system is Plasmopara viticola. Put plainly: Test B: grape downy mildew, spray 24 h after inoculation (disease rating, 100 = 100% disease control). Summed up:
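Grape seedlings were inoculated with Plasmopara viticola and held 24 h saturated at 20 °C, then sprayed to run-off with compound suspension (acetone/water with 250 ppm Trem 014; 200 ppm ≈ 500 g/ha). After 5 days at 20 °C and 24 h saturation, disease was rated from 0 to 100% control versus untreated.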

The mark [5] stands for this setting: spray the day before inoculation, compounds without asterisk (not 40 or 10 ppm).
Setting [6] is: spray 17 h after inoculation, compounds without asterisk (not 40 or 10 ppm).
Setting [7] is: DMSO/acetone/water suspension, spray the day before inoculation, compounds without asterisk.
Where [8] appears, read: spray 24 h after inoculation, compounds without asterisk (not 40 or 10 ppm).
The mark [9] stands for this setting: sprayed the day before inoculation, 7 days at 20° C., unmarked compounds (no asterisk, not 40 or 10 ppm).
Where [10] appears, read: sprayed 17 h after inoculation, unmarked compounds (no asterisk, not 40 or 10 ppm).
The mark [11] stands for this setting: DMSO/acetone/water test suspension, sprayed the day before inoculation, unmarked compounds (no asterisk).
The mark [12] stands for this setting: sprayed the day before inoculation, unmarked compounds (no asterisk, not 40 or 10 ppm).
The mark [13] stands for this setting: sprayed 24 h after inoculation, unmarked compounds (no asterisk, not 40 or 10 ppm).

Regarding `COc1ccc(C)cc1CC(=O)N1CCC(c2nc(C(=O)N(C)[C@H](C)c3ccccc3)cs2)CC1` [compound 125], the “Test E disease rating (100 = 100% disease control, 0 = no disease control)” value in experiment [1] (setting [5]) turned out to be 94%. Moreover, the “Test D disease rating (100 = 100% disease control, 0 = no disease control)” value with Phytophthora infestans [2] (setting [6]) stood at 99%. Moreover, in experiment [3] (setting [7]), the “Test F disease rating (100 = 100% disease control, 0 = no disease control)” value stood at 100%. Further, the “Test C disease rating (100 = 100% disease control, 0 = no disease control)” value in the experiment with Phytophthora infestans [4] (setting [5]) is 100%. Further, in the experiment on Plasmopara viticola (setting [8]), the “Test B disease rating (100 = 100% disease control, 0 = no disease control)” value is reported as 100%.
As for `Cc1ccc(C)c(CC(=O)N2CCC(c3nc(C(=O)N(C)[C@H](C)c4ccc(F)cc4)cs3)CC2)c1` [compound 64], in experiment [1] (setting [5]), the “Test E disease rating (100 = 100% disease control, 0 = no disease control)” value came to 92%. In addition, the “Test D disease rating (100 = 100% disease control, 0 = no disease control)” value in the experiment on Phytophthora infestans [2] (setting [6]) stood at 95%. Further, the “Test F disease rating (100 = 100% disease control, 0 = no disease control)” value in experiment [3] (setting [7]) is on record as 93%. Besides, in the experiment on Phytophthora infestans [4] (setting [5]), the “Test C disease rating (100 = 100% disease control, 0 = no disease control)” value was found to be 100%. Besides, the “Test B disease rating (100 = 100% disease control, 0 = no disease control)” value with Plasmopara viticola (setting [8]) is given as 100%.
`Cc1ccc(C)c(CC(=O)N2CCC(c3nc(C(=O)N(C)[C@H](C)c4cccc(C(F)(F)F)c4)cs3)CC2)c1` [compound 67]: the “Test E disease rating (100 = 100% disease control, 0 = no disease control)” value in experiment [1] (setting [5]) stood at 0%. The “Test D disease rating (100 = 100% disease control, 0 = no disease control)” value with Phytophthora infestans [2] (setting [6]) is recorded as 0%. Also, the “Test F disease rating (100 = 100% disease control, 0 = no disease control)” value in experiment [3] (setting [7]) stood at 99%. Besides, in the experiment on Phytophthora infestans [4] (setting [5]), the “Test C disease rating (100 = 100% disease control, 0 = no disease control)” value is 68%. The “Test B disease rating (100 = 100% disease control, 0 = no disease control)” value in the experiment on Plasmopara viticola (setting [8]) came out at 10%.
Regarding `C[C@H](c1ccccc1)N(C)C(=O)c1csc(C2CCN(C(=O)Cc3cc(C(F)(F)F)ccc3C(F)(F)F)CC2)n1` [compound 87], the “Test E disease rating (100 = 100% disease control, 0 = no disease control)” value in experiment [1] (setting [5]) was 0%. In addition, the “Test D disease rating (100 = 100% disease control, 0 = no disease control)” value in the experiment on Phytophthora infestans [2] (setting [6]) is reported as 8%. The “Test F disease rating (100 = 100% disease control, 0 = no disease control)” value in experiment [3] (setting [7]) amounted to 100%. Besides, the “Test C disease rating (100 = 100% disease control, 0 = no disease control)” value in the experiment with Phytophthora infestans [4] (setting [5]) turned out to be 88%. Moreover, the “Test B disease rating (100 = 100% disease control, 0 = no disease control)” value in the experiment with Plasmopara viticola (setting [8]) was 79%.
As for `Cc1ccc(C)c(CC(=O)N2CCC(c3nc(C(=O)N[C@H](C)c4ccccc4)cs3)CC2)c1` [compound 283], the “Test E disease rating (100 = 100% disease control, 0 = no disease control)” value in experiment [1] (setting [9]) turned out to be 0. The “Test D disease rating (100 = 100% disease control, 0 = no disease control)” value in the experiment with Phytophthora infestans [2] (setting [10]) is reported as 0. Besides, the “Test F disease rating (100 = 100% disease control, 0 = no disease control)” value in experiment [3] (setting [11]) is listed as 99. Besides, the “Test C disease rating (100 = 100% disease control, 0 = no disease control)” value with Phytophthora infestans [4] (setting [12]) is listed as 84. Further, the “Test B disease rating (100 = 100% disease control, 0 = no disease control)” value with Plasmopara viticola (setting [13]) is recorded as 48.
In the case of `Cc1cc(C(F)(F)F)nn1CC(=O)N1CCC(c2nc(C(=O)N(C)[C@H](C)c3ncc(Cl)cc3Cl)cs2)CC1` [compound 143], the “Test E disease rating (100 = 100% disease control, 0 = no disease control)” value in experiment [1] (setting [5]) is recorded as 0%. For the same compound, the “Test D disease rating (100 = 100% disease control, 0 = no disease control)” value in the experiment on Phytophthora infestans [2] (setting [6]) stood at 99%. For the same compound, the “Test F disease rating (100 = 100% disease control, 0 = no disease control)” value in experiment [3] (setting [7]) was determined as 50%. Also, the “Test C disease rating (100 = 100% disease control, 0 = no disease control)” value with Phytophthora infestans [4] (setting [5]) was determined as 100%. For the same compound, in the experiment with Plasmopara viticola (setting [8]), the “Test B disease rating (100 = 100% disease control, 0 = no disease control)” value worked out at 69%.
For `C[C@H](c1ccccc1)N(C)C(=O)c1csc(C2CCN(C(=O)Cc3cc(Cl)ccc3Br)CC2)n1` [compound 86], in that order: 0%, 100%, 86%, 99% and 99%.
The like results for `Cc1ccc(C)c(CC(=O)N2CCC(c3nc(C(=O)N(C)Cc4ccccc4)cs3)CC2)c1` [compound 167] were, in that order, 0%, 0%, 99%, 97% and 27%.
Turning to `Cc1cc(C(F)(F)F)nn1CC(=O)N1CCC(c2nc(C(=O)N(C)C3CCCc4ccccc43)cs2)CC1` (stereo not drawn) [Compound 188, N-methyl-2-[1-[[5-methyl-3-(trifluoromethyl)-1H-pyrazol-1-yl]acetyl]-4-piperidinyl]-N-(1,2,3,4-tetrahydro-1-naphthalenyl)-4-thiazolecarboxamide], the pest or weed control at 10 ppm in experiment [1] (Blumeria graminis, topical, 168 h, spray the day before inoculation, tested at 10 ppm, read-out: Test E disease rating (100 = 100% disease control, 0 = no disease control)) is 84%; in the experiment on Phytophthora infestans [2] (Phytophthora infestans, in Solanum lycopersicum, topical, 96 h, read-out: Test D disease rating (100 = 100% disease control, 0 = no disease control)), 99%; in experiment [3] (Pseudoperonospora cubensis, topical, 168 h, DMSO/acetone/water suspension, spray the day before inoculation, compound marked as tested at 10 ppm, read-out: Test F disease rating (100 = 100% disease control, 0 = no disease control)), 99%; in the experiment on Phytophthora infestans [4] (Phytophthora infestans, in Solanum lycopersicum, 144 h, read-out: Test C disease rating (100 = 100% disease control, 0 = no disease control)) it was 100%; in the experiment on Plasmopara viticola (Plasmopara viticola, 144 h, spray 24 h after inoculation, tested at 10 ppm, read-out: Test B disease rating (100 = 100% disease control, 0 = no disease control)) it was 99%.
`COc1ccc(C)cc1NC(=S)N1CCC(c2nc(C(=O)N(C)[C@H](C)c3ccccc3)cs2)CC1` [compound 159]: in experiment [1] (setting [5]), the “Test E disease rating (100 = 100% disease control, 0 = no disease control)” value is listed as 73%. The “Test D disease rating (100 = 100% disease control, 0 = no disease control)” value with Phytophthora infestans [2] (setting [6]) came out at 91%. For the same compound, in experiment [3] (setting [7]), the “Test F disease rating (100 = 100% disease control, 0 = no disease control)” value was found to be 93%. Further, the “Test C disease rating (100 = 100% disease control, 0 = no disease control)” value with Phytophthora infestans [4] (setting [5]) is recorded as 99%. In addition, the “Test B disease rating (100 = 100% disease control, 0 = no disease control)” value in the experiment with Plasmopara viticola (setting [8]) amounted to 95%.
The like results for `Cc1ccc([C@@H](C)N(C)C(=O)c2csc(C3CCN(C(=O)Cc4cc(C)ccc4C)CC3)n2)cc1` [compound 62] were, in that order, 29%, 24%, 43%, 92% and 92%.
In the case of `CC[C@@H](NC(=O)c1csc(C2CCN(C(=O)Cc3cccc(Br)c3)CC2)n1)c1ccccc1` [compound 278], the “Test E disease rating (100 = 100% disease control, 0 = no disease control)” value in experiment [1] (setting [9]) is given as 0. The “Test D disease rating (100 = 100% disease control, 0 = no disease control)” value in the experiment with Phytophthora infestans [2] (setting [10]) came out at 0. In addition, the “Test F disease rating (100 = 100% disease control, 0 = no disease control)” value in experiment [3] (setting [11]) stood at 93. The “Test C disease rating (100 = 100% disease control, 0 = no disease control)” value in the experiment with Phytophthora infestans [4] (setting [12]) is 33. Further, the “Test B disease rating (100 = 100% disease control, 0 = no disease control)” value with Plasmopara viticola (setting [13]) came out at 0.
As for `Cc1ccc(C)c(CC(=O)N2CCC(c3nc(C(=O)N(C)C4CCCC(C)C4)cs3)CC2)c1` (stereo not drawn) [compound 176], the “Test E disease rating (100 = 100% disease control, 0 = no disease control)” value in experiment [1] (setting [5]) is 0%. Further, the “Test D disease rating (100 = 100% disease control, 0 = no disease control)” value in the experiment on Phytophthora infestans [2] (setting [6]) came out at 24%. Moreover, in experiment [3] (setting [7]), the “Test F disease rating (100 = 100% disease control, 0 = no disease control)” value was 49%. Further, in the experiment with Phytophthora infestans [4] (setting [5]), the “Test C disease rating (100 = 100% disease control, 0 = no disease control)” value was found to be 95%. The “Test B disease rating (100 = 100% disease control, 0 = no disease control)” value with Plasmopara viticola (setting [8]) amounted to 15%.
The like results for `C[C@H](c1ccccc1)N(C)C(=O)c1csc(C2CCN(C(=S)Nc3cccc(C(F)(F)F)c3)CC2)n1` [compound 160] were, in that order, 0%, 0%, 50%, 40% and 47%.
For `C[C@H](c1ccccc1)N(C)C(=O)c1coc(N2CCN(C(=O)Cc3cccc(C(F)(F)F)c3)CC2)n1` [compound 55], in that order: 0%, 92%, 47%, 100% and 7%.
